Structures can show the parent of a compound that is named as a salt. Where two headings read alike, the source gives them in different places.
Key:
H^+ /K^+ -ATPase = target: T1, H^+ /K^+ -ATPase (Oryctolagus cuniculus, UniProt P27112); test: Inhibition of H+/K+-ATPase enzyme activity in vitro; type: biochemical, rabbit; details: 5 min pre-incubation at 37° C., 4 mM ATP
T1 construct: The gastric mucous membrane was removed from rabbit; from tissue; host or cells: rabbit gastric mucosa, microsomal fraction (77,000 xg)
T1 sequence (P27112 2-1035 limits assumed): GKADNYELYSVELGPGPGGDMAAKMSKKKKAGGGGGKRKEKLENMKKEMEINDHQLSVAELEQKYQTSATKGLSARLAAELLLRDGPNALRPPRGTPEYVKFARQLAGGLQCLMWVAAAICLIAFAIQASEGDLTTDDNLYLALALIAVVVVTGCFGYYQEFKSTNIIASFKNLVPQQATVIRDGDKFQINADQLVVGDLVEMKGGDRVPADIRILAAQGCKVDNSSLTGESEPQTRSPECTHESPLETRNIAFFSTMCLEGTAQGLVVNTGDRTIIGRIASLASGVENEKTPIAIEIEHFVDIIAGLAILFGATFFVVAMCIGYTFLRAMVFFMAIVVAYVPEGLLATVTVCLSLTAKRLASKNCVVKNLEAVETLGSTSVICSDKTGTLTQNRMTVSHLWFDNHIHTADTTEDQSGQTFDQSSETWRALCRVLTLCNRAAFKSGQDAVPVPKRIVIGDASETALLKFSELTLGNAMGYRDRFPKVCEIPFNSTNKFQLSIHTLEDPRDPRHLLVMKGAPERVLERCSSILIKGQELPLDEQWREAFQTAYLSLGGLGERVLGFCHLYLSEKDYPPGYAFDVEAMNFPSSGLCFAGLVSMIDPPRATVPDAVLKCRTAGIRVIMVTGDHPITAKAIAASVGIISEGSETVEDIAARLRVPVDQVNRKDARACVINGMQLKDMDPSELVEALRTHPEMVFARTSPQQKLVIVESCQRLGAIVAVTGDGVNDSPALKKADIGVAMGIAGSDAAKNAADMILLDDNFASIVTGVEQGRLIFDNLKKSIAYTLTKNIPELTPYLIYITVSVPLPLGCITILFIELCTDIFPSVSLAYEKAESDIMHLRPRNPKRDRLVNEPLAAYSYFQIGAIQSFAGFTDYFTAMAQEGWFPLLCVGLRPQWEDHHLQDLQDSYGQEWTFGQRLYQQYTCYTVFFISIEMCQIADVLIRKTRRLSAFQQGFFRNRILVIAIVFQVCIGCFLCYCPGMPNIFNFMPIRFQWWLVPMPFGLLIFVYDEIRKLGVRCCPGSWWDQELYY
T1 sequence (P18597 whole entry partner): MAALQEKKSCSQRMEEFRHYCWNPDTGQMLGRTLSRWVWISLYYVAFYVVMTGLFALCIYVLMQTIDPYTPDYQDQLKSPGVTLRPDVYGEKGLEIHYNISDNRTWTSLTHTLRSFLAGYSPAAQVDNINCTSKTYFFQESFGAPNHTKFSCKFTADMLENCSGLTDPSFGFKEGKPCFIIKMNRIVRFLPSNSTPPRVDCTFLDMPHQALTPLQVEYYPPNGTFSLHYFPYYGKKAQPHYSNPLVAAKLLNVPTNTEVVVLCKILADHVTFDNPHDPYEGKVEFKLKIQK
Procedure: The gastric mucous membrane was removed from rabbit and then centrifuged with 77,000 xg using a ultracentrifuge to separate the microsomal fraction which was used as the source of H^+ /K^+ -ATPase enzyme for this test. 60 μg of H^+ /K^+ -ATPase was pre-incubated with the sample (the compound according to the present invention) for 5 minutes at 37° C. and then 4 mM ATP as the substrate and 4 mM Mg^++, 20 mM K^+ as the cofactor were added thereto. Then, the amount of inorganic phosphorus thus produced was determined using a spectrophotometer at 660 nm and converted into the amount of protein according to Lowry method. […]

[1] = test system: gastric and duodenal ulcers; details: background art; cited from earlier work
[2] = test system: proton pump of H^+, K^+ -ATPase; details: background art; cited from earlier work
acidity = test: Inhibition of acidity (total acid output), Shay method; type: in vivo, SD male rats; details: 5 h; for Volume (inhibition of acidity) / Inhibition rate, acidity: intraduodenal, rat; for Inhibition rate, acidity: vs normal group
Procedure: (§1) The specific test methods are as follows.
(§2) SD male rats (200±20 g) were fasted for 24 hours, except for water, and then anesthesized with ether. The abdomen of rats was incised and then the pylorus was ligated. The test compounds were suspended or dissolved in […] (carboxymethylcellulose) and injected into duodenum. After the abdomen was suctured, the rats were allowed to stand for 5 hours and then sacrificed with ether. The stomach was removed from rats and the gastric juices were collected. The gastric juice was centrifuged with 10,000×g for 10 minutes at 4° C. to remove the precipitate. The amount of gastric juice and acidity were determined using pH 7.0 end point assay with 0.02N NaOH and then the total acid output was calculated.

gastric juice secretion = test: Inhibition of gastric juice secretion, Shay method; type: in vivo, SD male rats; details: 5 h; for Gastric juice volume / Inhibition rate, gastric juice secretion: intraduodenal, rat; for Inhibition rate, gastric juice secretion: vs normal group
Procedure: as §1, §2

ICR (male, female) mouse = test: in vivo; details: oral; for Number of animals died in day after administration: each of days 0-14
Procedure: (§3) Five weeks aged ICR (male, female) mouse were pre-bred in the breeding cage for one week and then the animals showing a smooth gain in body weight were randomly selected and used in this test. The amount to be administered to the test animals was established on the basis of the maximum dose of 5,000 mg/kg with the common ratio of 1.5.
(§4) The test compounds in a powder were suspended in 0.5% methylcellulose and administered per oral using a lml syringe. The other specific conditions for administration are described in the following.
(§5) In the above test, the control group received only 0.5% methylcellulose.
(§6) (1) Clinical symptoms and death of test animals
(§7) The clinical symptoms and death of test animals caused by the test compounds were recorded immediately after administration of the test compounds and during the overall test period.

in vivo = details: mouse, in vivo, po
Procedure: as §3, §4, §5, §6, §7

[3] = rabbit gastric microsomal H+/K+-ATPase, read-out: IC50

`Cc1c(OCC(F)(F)C(F)(F)C(F)(F)F)ccnc1C[S+]([O-])c1nc2cc(-n3cccc3)c(F)cc2[nH]1` (stereo not drawn) [Compound 13] showed an IC50 (H^+ /K^+ -ATPase; IC50, rabbit gastric microsomal H+/K+-ATPase) of 470 µM.

For `Cc1cnc(C[S+]([O-])c2nc3cc(-n4c(C)ccc4C)c(F)cc3[nH]2)cc1C` (stereo not drawn) [Compound 18], the IC50 (H^+ /K^+ -ATPase; [3]) was 400 µM.

`COc1ccnc(C[S+]([O-])c2nc3cc(-n4cccc4)c(F)cc3[nH]2)c1OC` (stereo not drawn) [Compound 7] gave an IC50 (H^+ /K^+ -ATPase; [3]) of 290 µM.

In the case of `COc1ccnc(C[S+]([O-])c2nc3cc(-n4c(C)ccc4C)c(F)cc3[nH]2)c1C` (stereo not drawn) [Compound 25], the IC50 (H^+ /K^+ -ATPase; [3]) is reported as 5.9 µM.

`Cc1c(OCC(F)(F)F)ccnc1C[S+]([O-])c1nc2cc(-n3c(C)ccc3C)c(F)cc2[nH]1` (stereo not drawn) [Compound 23] gave an IC50 (H^+ /K^+ -ATPase; [3]) of 320 µM.

`Cc1ccc(C)n1-c1cc2nc([S+]([O-])Cc3ccccn3)[nH]c2cc1F` (stereo not drawn) [Compound 21] showed an IC50 (H^+ /K^+ -ATPase; [3]) of 7600 µM.

In the case of `COc1ccnc(CSc2nc3cc(-n4cccc4)c(F)cc3[nH]2)c1C` [Compound 1, 2-[[(4-methoxy-3-methyl)-2-pyridinyl]methylthio]-5-(1H-pyrrol-1-yl)-6-fluoro-1H-benzimidazole], the IC50 (H^+ /K^+ -ATPase; [3]) is reported as 420 µM.

For `COc1ccc2[nH]c([S+]([O-])Cc3ncc(C)c(OC)c3C)nc2c1` (stereo not drawn) [Omeprazole, 5-methoxy-2-[[(4-methoxy-3,5-dimethyl-2-pyridinyl)methyl]sulfinyl]-1H-benzimidazole], the IC50 (H^+ /K^+ -ATPase; [3]) is listed as ~160 µM, the “Anti-ulcer effect over conventional H2-receptor antagonists” value [1] is listed as “superior effect over conventional H2 -receptor antagonists” and the “Duration compared with conventional anti-ulcer agents” value [1] is listed as “prolonged duration in comparison with conventional anti-ulcer agents”. For the same compound, the Acting mechanism [2] was “specific proton pump inhibitor”, the “Volume (inhibition of acidity)” value (acidity; 10 mg/kg) was 9.91 ± 4.20 μEq/hr and the “Inhibition rate, acidity” value (acidity; 10 mg/kg) was 82.89%. The ED50 (acidity; Rattus norvegicus) was 3.73 mg/kg, the Gastric juice volume (gastric juice secretion; 10 mg/kg) was 1.49 ± 0.18 ml/100 g BW and the “Inhibition rate, gastric juice secretion” value (gastric juice secretion; 10 mg/kg) was 54.29%. For the same compound, the ED50 (gastric juice secretion; Rattus norvegicus) was 8.5 mg/kg, the “Acute toxicity (in words)” value (ICR (male, female) mouse; clinical symptoms, death and autopsy results, mouse) was “very low as in Omeprazole” and the LD50 (ICR (male, female) mouse; female mouse) was > 5,000.0 mg/kg BW. For the same compound, the “Number of animals died in day after administration” value (from here on “Number of animals died in day”) (ICR (male, female) mouse; female mouse, 987 mg/kg) was 0, the “Number of animals died in day” value (ICR (male, female) mouse; female mouse, 1481 mg/kg) was 0 and the “Number of animals died in day” value (ICR (male, female) mouse; female mouse, 2222 mg/kg) was 0. For the same compound, the “Number of animals died in day” value (ICR (male, female) mouse; female mouse, 3333 mg/kg) was 0, the “Number of animals died in day” value (ICR (male, female) mouse; female mouse, 5000 mg/kg) was 0 and the Clinical symptoms (ICR (male, female) mouse; male and female, maximum administration amount of 5,000 mg per kg) was “No specific abnormal clinical symptoms were observed”. The LD50 (ICR (male, female) mouse; male mouse) was > 5,000.0 mg/kg BW, the “Number of animals died in day” value (ICR (male, female) mouse; male mouse, 987 mg/kg) was 0 and the “Number of animals died in day” value (ICR (male, female) mouse; male mouse, 1481 mg/kg) was 0. The “Number of animals died in day” value (ICR (male, female) mouse; male mouse, 2222 mg/kg) was 0, the “Number of animals died in day” value (ICR (male, female) mouse; male mouse, 3333 mg/kg) was 0 and the “Number of animals died in day” value (ICR (male, female) mouse; male mouse, 5000 mg/kg) was 0. The Visual autopsy view (ICR (male, female) mouse; survived animals) was “No specific abnormal autopsy view was observed” and the LD50 (in vivo) was > 5000 mg/kg.

Work on `COc1ccnc(C[S+]([O-])c2nc3cc(-n4c(C)ccc4C)c(F)cc3[nH]2)c1OC` (stereo not drawn) [Compound 19] yielded an IC50 (H^+ /K^+ -ATPase; [3]) of 8100 µM.

For `COc1cc(C[S+]([O-])c2nc3cc(-n4c(C)ccc4C)c(F)cc3[nH]2)ncc1C` (stereo not drawn) [Compound 17], the IC50 (H^+ /K^+ -ATPase; [3]) was 22 µM.

For `COc1c(C)cnc(C[S+]([O-])c2nc3cc(-n4c(C)ccc4C)c(F)cc3[nH]2)c1C` (stereo not drawn) [Compound 15], the IC50 (H^+ /K^+ -ATPase; [3]) was 50 µM, the “Volume (inhibition of acidity)” value (acidity; 10 mg/kg) was 26.61 ± 5.27 μEq/hr and the “Inhibition rate, acidity” value (acidity; 10 mg/kg) was 51.81%. For the same compound, the “Volume (inhibition of acidity)” value (acidity; 30 mg/kg) was 12.74 ± 1.80 μEq/hr, the “Inhibition rate, acidity” value (acidity; 30 mg/kg) was 76.93% and the Gastric juice volume (gastric juice secretion; 10 mg/kg) was 1.81 ± 0.19 ml/100 g BW. For the same compound, the “Inhibition rate, gastric juice secretion” value (gastric juice secretion; 10 mg/kg) was 33.70%, the Gastric juice volume (gastric juice secretion; 30 mg/kg) was 1.46 ± 0.13 ml/100 g BW and the “Inhibition rate, gastric juice secretion” value (gastric juice secretion; 30 mg/kg) was 46.52%.

For `COc1ccnc(C[S+]([O-])c2nc3cc(-n4cccc4)c(F)cc3[nH]2)c1C` (stereo not drawn) [Compound 24, 2-[[(4-methoxy-3-methyl)-2-pyridinyl]methylsulfinyl]-5-(1H-pyrrol-1-yl)-6-fluoro-1H-benzimidazole sodium salt], the IC50 (H^+ /K^+ -ATPase; [3]) was 5.6 µM.
